Measurements from patent US12208092B2, “Compositions and methods for administering paltusotine to patients with hepatic impairment” (CRINETICS PHARMACEUTICALS, INC., priority 2023, dated 2025).
Where two headings read alike, the source gives them in different places.

How the values were obtained:
[1] = target: human somatostatin receptor 2 (SST2) (Homo sapiens, UniProt P30874); conditions: read-out: EC50, inhibition of cAMP accumulation via SST2 activation; average, in vitro
IGF-1 = experiment: suppression of IGF-1 in Beagle dogs, 7 days oral; type: in vivo
[2] = system: large panel of other known receptors, channels, and enzymes
[3] = system: human liver microsomes and recombinant CYP450s; experiment: CYP phenotyping, in vitro metabolism; type: in vitro ADME
[4] = Phase 1 hepatic impairment study, plasma PK after single oral 20 mg tablet; type: in vivo, human; conditions: for AUC(0-t) / AUC(0-inf) / Cmax / MRT inf / Vd/F / half-life / Tmax: both sexes, human, plasma, oral, 20 mg; for AUC(0-inf): read-out: AUC(0-inf), Mean ± SD; for Cmax: read-out: Cmax, Mean ± SD; for MRT inf: read-out: MRT(0-inf), Median (min, max); for Vd/F: read-out: VZ/F, Mean ± SD; for half-life: read-out: t1/2, Mean ± SD (converted); for Tmax: read-out: tmax, Median (min, max); for AUC(0-inf) Geometric Mean Ratio (90% CI), sensitivity analysis / AUC(0-t) Geometric Mean Ratio (90% CI), sensitivity analysis / Cmax Geometric Mean Ratio (90% CI), sensitivity analysis: matched pairs MMRM with age and BMI
Description: Overall, 36 male and female subjects were enrolled, including 14 subjects with normal hepatic function, 8 subjects with mild stable hepatic impairment (Group 1), 8 subjects with moderate stable hepatic impairment (Group 2), and 6 subjects with severe stable hepatic impairment (Group 3). Healthy subjects with normal hepatic function (Group 4) were matched with hepatically impaired subjects according to sex, age (±10 years), and BMI (±20%). A reasonable attempt was made to match healthy subjects with hepatically impaired subjects in terms of race. Healthy subjects may have matched to more than 1 subject in different hepatic impairment groups but not more than 1 subject within each hepatic impairment group. Healthy subjects were recruited into the study after a sufficient number of hepatically impaired subjects were enrolled in Groups 1, 2, and 3.
The Child-Pugh scale was used to categorize the degree of hepatic impairment for assignment into the mild (score of 5-6), moderate (score of 7-9), and severe hepatic impairment (score of 10-15) groups.
The study included a screening period (Days −28 to −2), check-in (Day −1), and a treatment period (Days 1 to 7). On Day 1, all subjects received a single oral dose of 20 mg of paltusotine (1×20 mg tablet) administered with 240 mL of room temperature water following an overnight fast (nothing to eat or drink except water) of at least 10 hours. Subjects remained fasted and upright (seated or standing) for 4 hours after dosing. Water was permitted as desired except for the period 1 hour before and 1 hour after administration of study drug. Subjects received standardized meals that were scheduled at the same time daily during the study.
Serial blood samples for PK analysis of paltusotine were collected before dosing (0 hour) and up to 144 hours after administration of paltusotine.
Blood samples for analysis of paltusotine concentrations in plasma were collected at the following time points: before dosing (0 hour) and at 0.25, 0.5, 0.75, 1, 1.25, 1.5, 2, 3, 4, 6, 8, 10, 12, 24, 48, 72, 96, 120, and 144 hours after administration of paltusotine.
Pharmacokinetic samples were analyzed using a validated liquid chromatography coupled with tandem mass spectrometry assay for paltusotine in human plasma.
Plasma concentration-time data was analyzed by non-compartmental analysis using Phoenix® WinNonlin® Version 8.3 (Certara USA, Inc., Princeton, NJ).

Chain of human somatostatin receptor 2 (SST2) (P30874 whole entry): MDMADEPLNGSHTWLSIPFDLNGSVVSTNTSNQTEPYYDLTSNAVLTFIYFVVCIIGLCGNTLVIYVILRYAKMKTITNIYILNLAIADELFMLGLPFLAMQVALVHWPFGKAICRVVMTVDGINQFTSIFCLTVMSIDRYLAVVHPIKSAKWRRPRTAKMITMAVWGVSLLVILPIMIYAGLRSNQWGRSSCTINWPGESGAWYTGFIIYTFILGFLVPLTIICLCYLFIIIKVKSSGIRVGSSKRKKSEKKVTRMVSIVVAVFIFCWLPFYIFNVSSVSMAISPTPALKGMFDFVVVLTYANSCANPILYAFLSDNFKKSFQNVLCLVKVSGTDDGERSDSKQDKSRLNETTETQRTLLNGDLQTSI

Compound: N#Cc1cccc(-c2ccc3ncc(-c4cc(F)cc(F)c4)c(N4CCC(N)CC4)c3c2)c1O [paltusotine, 3-[4-(4-amino-1-piperidyl)-3-(3,5-difluorophenyl)-6-quinolyl]-2-hydroxybenzonitrile]
- EC50 [1]: 0.25 nM
- oral doses with sustained suppression of IGF-1 (IGF-1): ≥ 6 mg/kg/day
- selectivity for SST2 over panel of other receptors, channels, and enzymes [2]: > 2000 fold
- CYP enzymes catalyzing oxidative metabolism [3]: CYP3A4/5 catalyzes the oxidative metabolism of paltusotine with minor contribution of CYP2D6
- contribution of CYP-mediated metabolism ([3]; in vitro studies): ~16.8%
- AUC(0-t) ([4]; mild hepatic impairment, read-out: AUC(0-24), Mean ± SD): 1150 ± 467 ng·h/mL
- AUC(0-inf) ([4]; mild hepatic impairment): 1880 ± 926 ng·h/mL
- AUC(0-t) ([4]; mild hepatic impairment, read-out: AUC(0-t), Mean ± SD): 1820 ± 888 ng·h/mL
- Cmax ([4]; mild hepatic impairment): 133 ± 56.6 ng/mL
- MRT inf ([4]; mild hepatic impairment): 28.3 h
- Vd/F ([4]; mild hepatic impairment): 565 ± 348 L
- half-life ([4]; mild hepatic impairment): 29.5 ± 9.4 h
- Tmax ([4]; mild hepatic impairment): 1.63 h
- AUC(0-t) ([4]; moderate hepatic impairment, read-out: AUC(0-24), Mean ± SD): 1050 ± 729 ng·h/mL
- AUC(0-inf) ([4]; moderate hepatic impairment): 1620 ± 1050 ng·h/mL
- AUC(0-t) ([4]; moderate hepatic impairment, read-out: AUC(0-t), Mean ± SD): 1580 ± 1040 ng·h/mL
- Cmax ([4]; moderate hepatic impairment): 100 ± 74.6 ng/mL
- MRT inf ([4]; moderate hepatic impairment): 25.2 h
- Vd/F ([4]; moderate hepatic impairment): 1050 ± 1110 L
- half-life ([4]; moderate hepatic impairment): 31.2 ± 7.93 h
- Tmax ([4]; moderate hepatic impairment): 2 h
- AUC(0-t) ([4]; normal hepatic function, read-out: AUC(0-24), Mean ± SD): 1070 ± 545 ng·h/mL
- AUC(0-inf) ([4]; normal hepatic function): 1840 ± 947 ng·h/mL
- AUC(0-t) ([4]; normal hepatic function, read-out: AUC(0-t), Mean ± SD): 1780 ± 914 ng·h/mL
- Cmax ([4]; normal hepatic function): 101 ± 53.7 ng/mL
- MRT inf ([4]; normal hepatic function): 34.6 h
- Vd/F ([4]; normal hepatic function): 660 ± 407 L
- half-life ([4]; normal hepatic function): 32.8 ± 6.92 h
- Tmax ([4]; normal hepatic function): 2 h
- AUC(0-t) ([4]; severe hepatic impairment, read-out: AUC(0-24), Mean ± SD): 1100 ± 704 ng·h/mL
- AUC(0-inf) ([4]; severe hepatic impairment): 1740 ± 1230 ng·h/mL
- AUC(0-t) ([4]; severe hepatic impairment, read-out: AUC(0-t), Mean ± SD): 1680 ± 1190 ng·h/mL
- Cmax ([4]; severe hepatic impairment): 110 ± 72.7 ng/mL
- MRT inf ([4]; severe hepatic impairment): 29.2 h
- Vd/F ([4]; severe hepatic impairment): 666 ± 479 L
- half-life ([4]; severe hepatic impairment): 29.4 ± 8.38 h
- Tmax ([4]; severe hepatic impairment): 3 h
- CL/F, Mean ± SD ([4]; mild hepatic impairment): 15.50 ± 13.496 L/h
- Cmax higher relative to normal group ([4]; mild hepatic impairment): 35%
- tlag, Median (min, max) ([4]; mild hepatic impairment): 0.00 (0.0, 0.3) h
- AUC(0-inf) Geometric Mean Ratio (90% CI), sensitivity analysis ([4]; mild vs normal): 0.94 (0.591, 1.504)
- AUC(0-t) Geometric Mean Ratio (90% CI), sensitivity analysis ([4]; mild vs normal): 0.95 (0.591, 1.515)
- Cmax Geometric Mean Ratio (90% CI), sensitivity analysis ([4]; mild vs normal): 1.38 (0.871, 2.200)
- AUC0-t and AUC0-inf lower relative to normal group ([4]; moderate hepatic impairment): approximately 25%
- CL/F, Mean ± SD ([4]; moderate hepatic impairment): 24.89 ± 25.914 L/h
- Cmax lower relative to normal group ([4]; moderate hepatic impairment): 24%
- mean CL/F higher compared to normal group ([4]; moderate hepatic impairment): 1.8 fold
- mean Vz/F higher compared to normal group ([4]; moderate hepatic impairment): 1.6 fold
- tlag, Median (min, max) ([4]; moderate hepatic impairment): 0.13 (0.0, 0.5) h
- AUC(0-inf) Geometric Mean Ratio (90% CI), sensitivity analysis ([4]; moderate vs normal): 0.72 (0.414, 1.251)
- AUC(0-t) Geometric Mean Ratio (90% CI), sensitivity analysis ([4]; moderate vs normal): 0.71 (0.403, 1.254)
- Cmax Geometric Mean Ratio (90% CI), sensitivity analysis ([4]; moderate vs normal): 0.74 (0.389, 1.412)
- CL/F, Mean ± SD ([4]; normal hepatic function): 14.05 ± 7.521 L/h
- tlag, Median (min, max) ([4]; normal hepatic function): 0.00 (0.0, 0.3) h
- time through which concentration was measurable in systemic circulation ([4]; postdose, all groups): 144 h
- CL/F, Mean ± SD ([4]; severe hepatic impairment): 15.92 ± 8.507 L/h
- tlag, Median (min, max) ([4]; severe hepatic impairment): 0.00 (0.0, 0.3) h
- AUC(0-inf) Geometric Mean Ratio (90% CI), sensitivity analysis ([4]; severe vs normal): 0.94 (0.516, 1.702)
- AUC(0-t) Geometric Mean Ratio (90% CI), sensitivity analysis ([4]; severe vs normal): 0.93 (0.512, 1.702)
- Cmax Geometric Mean Ratio (90% CI), sensitivity analysis ([4]; severe vs normal): 1.04 (0.586, 1.854)
